# Measurements published in the NIST ThermoML archive (doi:10.1021/acs.jced.6b00096).
# Numbers after ± are expanded uncertainties.
# Columns and labels:
# [1] = xn = mol fraction of the nth substance listed; details: 100 kPa, Liquid; for viscosity: Falling or rolling sphere viscometry; for mass density: Vibrating tube method
# [2] = 298.15 K; 100 kPa; Liquid; Falling or rolling sphere viscometry
# [3] = 298.15 K; 100 kPa; Liquid; Vibrating tube method
# [4] = 318.15 K; 100 kPa; Liquid; Falling or rolling sphere viscometry
# [5] = 318.15 K; 100 kPa; Liquid; Vibrating tube method
smiles,measurement,setting,value
CC(C)(C)O [2-methylpropan-2-ol],viscosity,298.15 K; 100 kPa; Metastable liquid; Falling or rolling sphere viscometry,4.426 ± 0.06 mPa·s
same,mass density,298.15 K; 100 kPa; Metastable liquid; Vibrating tube method,780.99 ± 1.6 kg/m3
same,viscosity,318.15 K; 100 kPa; Falling or rolling sphere viscometry; Liquid,1.706 ± 0.026 mPa·s
same,mass density,318.15 K; 100 kPa; Vibrating tube method; Liquid,759.66 ± 1.5 kg/m3
CC(C)(C)O [2-methylpropan-2-ol] + CCO,viscosity,"[1]; 298.15 K, x2 = 0.045",4.314 ± 0.058 mPa·s
same,viscosity,"[1]; 298.15 K, x2 = 0.082",4.195 ± 0.056 mPa·s
same,viscosity,"[1]; 298.15 K, x2 = 0.1518",3.939 ± 0.052 mPa·s
same,viscosity,"[1]; 298.15 K, x2 = 0.287",3.395 ± 0.044 mPa·s
same,viscosity,"[1]; 298.15 K, x2 = 0.4085",2.86 ± 0.037 mPa·s
same,viscosity,"[1]; 298.15 K, x2 = 0.5174",2.384 ± 0.03 mPa·s
same,viscosity,"[1]; 298.15 K, x2 = 0.6167",2.026 ± 0.026 mPa·s
same,viscosity,"[1]; 298.15 K, x2 = 0.707",1.749 ± 0.022 mPa·s
same,viscosity,"[1]; 298.15 K, x2 = 0.7896",1.532 ± 0.019 mPa·s
same,viscosity,"[1]; 298.15 K, x2 = 0.8654",1.349 ± 0.017 mPa·s
same,viscosity,"[1]; 298.15 K, x2 = 0.9355",1.205 ± 0.015 mPa·s
same,mass density,"[1]; 298.15 K, x2 = 0.045",781.92 ± 1.6 kg/m3
same,mass density,"[1]; 298.15 K, x2 = 0.082",782.51 ± 1.6 kg/m3
same,mass density,"[1]; 298.15 K, x2 = 0.1518",783.11 ± 1.6 kg/m3
same,mass density,"[1]; 298.15 K, x2 = 0.287",783.69 ± 1.6 kg/m3
same,mass density,"[1]; 298.15 K, x2 = 0.4085",783.95 ± 1.6 kg/m3
same,mass density,"[1]; 298.15 K, x2 = 0.5174",784.15 ± 1.6 kg/m3
same,mass density,"[1]; 298.15 K, x2 = 0.6167",784.31 ± 1.6 kg/m3
same,mass density,"[1]; 298.15 K, x2 = 0.707",784.42 ± 1.6 kg/m3
same,mass density,"[1]; 298.15 K, x2 = 0.7896",784.55 ± 1.6 kg/m3
same,mass density,"[1]; 298.15 K, x2 = 0.8654",784.72 ± 1.6 kg/m3
same,mass density,"[1]; 298.15 K, x2 = 0.9355",784.85 ± 1.6 kg/m3
same,viscosity,"[1]; 318.15 K, x2 = 0.045",1.724 ± 0.026 mPa·s
same,viscosity,"[1]; 318.15 K, x2 = 0.082",1.721 ± 0.026 mPa·s
same,viscosity,"[1]; 318.15 K, x2 = 0.1516",1.692 ± 0.025 mPa·s
same,viscosity,"[1]; 318.15 K, x2 = 0.2872",1.577 ± 0.022 mPa·s
same,viscosity,"[1]; 318.15 K, x2 = 0.4083",1.442 ± 0.02 mPa·s
same,viscosity,"[1]; 318.15 K, x2 = 0.5174",1.308 ± 0.017 mPa·s
same,viscosity,"[1]; 318.15 K, x2 = 0.6168",1.188 ± 0.015 mPa·s
same,viscosity,"[1]; 318.15 K, x2 = 0.7072",1.078 ± 0.014 mPa·s
same,viscosity,"[1]; 318.15 K, x2 = 0.7896",0.983 ± 0.012 mPa·s
same,viscosity,"[1]; 318.15 K, x2 = 0.8656",0.895 ± 0.011 mPa·s
same,viscosity,"[1]; 318.15 K, x2 = 0.9355",0.817 ± 0.01 mPa·s
same,mass density,"[1]; 318.15 K, x2 = 0.045",761.37 ± 1.5 kg/m3
same,mass density,"[1]; 318.15 K, x2 = 0.082",762.26 ± 1.5 kg/m3
same,mass density,"[1]; 318.15 K, x2 = 0.1516",763.35 ± 1.5 kg/m3
same,mass density,"[1]; 318.15 K, x2 = 0.2872",764.69 ± 1.5 kg/m3
same,mass density,"[1]; 318.15 K, x2 = 0.4083",765.58 ± 1.5 kg/m3
same,mass density,"[1]; 318.15 K, x2 = 0.5174",766.2 ± 1.5 kg/m3
same,mass density,"[1]; 318.15 K, x2 = 0.6168",766.59 ± 1.5 kg/m3
same,mass density,"[1]; 318.15 K, x2 = 0.7072",766.91 ± 1.5 kg/m3
same,mass density,"[1]; 318.15 K, x2 = 0.7896",767.15 ± 1.5 kg/m3
same,mass density,"[1]; 318.15 K, x2 = 0.8656",767.35 ± 1.5 kg/m3
same,mass density,"[1]; 318.15 K, x2 = 0.9355",767.46 ± 1.5 kg/m3
CC(C)(C)O [2-methylpropan-2-ol] + Cc1ccccc1,viscosity,"[1]; 298.15 K, x2 = 0.0822",2.579 ± 0.035 mPa·s
same,viscosity,"[1]; 298.15 K, x2 = 0.1678",1.625 ± 0.022 mPa·s
same,viscosity,"[1]; 298.15 K, x2 = 0.2564",1.184 ± 0.016 mPa·s
same,viscosity,"[1]; 298.15 K, x2 = 0.3488",0.991 ± 0.013 mPa·s
same,viscosity,"[1]; 298.15 K, x2 = 0.4458",0.868 ± 0.011 mPa·s
same,viscosity,"[1]; 298.15 K, x2 = 0.5468",0.744 ± 0.009 mPa·s
same,viscosity,"[1]; 298.15 K, x2 = 0.6525",0.624 ± 0.008 mPa·s
same,viscosity,"[1]; 298.15 K, x2 = 0.7621",0.562 ± 0.007 mPa·s
same,viscosity,"[1]; 298.15 K, x2 = 0.8787",0.561 ± 0.007 mPa·s
same,mass density,"[1]; 298.15 K, x2 = 0.0822",786.59 ± 1.6 kg/m3
same,mass density,"[1]; 298.15 K, x2 = 0.1678",792.96 ± 1.6 kg/m3
same,mass density,"[1]; 298.15 K, x2 = 0.2564",799.78 ± 1.6 kg/m3
same,mass density,"[1]; 298.15 K, x2 = 0.3488",807.09 ± 1.6 kg/m3
same,mass density,"[1]; 298.15 K, x2 = 0.4458",815 ± 1.6 kg/m3
same,mass density,"[1]; 298.15 K, x2 = 0.5468",823.34 ± 1.6 kg/m3
same,mass density,"[1]; 298.15 K, x2 = 0.6525",832.08 ± 1.7 kg/m3
same,mass density,"[1]; 298.15 K, x2 = 0.7621",841.26 ± 1.7 kg/m3
same,mass density,"[1]; 298.15 K, x2 = 0.8787",851.02 ± 1.7 kg/m3
same,viscosity,"[1]; 318.15 K, x2 = 0.0822",1.171 ± 0.017 mPa·s
same,viscosity,"[1]; 318.15 K, x2 = 0.1676",0.899 ± 0.012 mPa·s
same,viscosity,"[1]; 318.15 K, x2 = 0.2565",0.744 ± 0.01 mPa·s
same,viscosity,"[1]; 318.15 K, x2 = 0.3491",0.649 ± 0.009 mPa·s
same,viscosity,"[1]; 318.15 K, x2 = 0.4459",0.582 ± 0.008 mPa·s
same,viscosity,"[1]; 318.15 K, x2 = 0.5467",0.528 ± 0.007 mPa·s
same,viscosity,"[1]; 318.15 K, x2 = 0.6524",0.486 ± 0.006 mPa·s
same,viscosity,"[1]; 318.15 K, x2 = 0.7627",0.461 ± 0.006 mPa·s
same,viscosity,"[1]; 318.15 K, x2 = 0.8788",0.454 ± 0.006 mPa·s
same,mass density,"[1]; 318.15 K, x2 = 0.0822",765.3 ± 1.5 kg/m3
same,mass density,"[1]; 318.15 K, x2 = 0.1676",771.88 ± 1.6 kg/m3
same,mass density,"[1]; 318.15 K, x2 = 0.2565",778.96 ± 1.6 kg/m3
same,mass density,"[1]; 318.15 K, x2 = 0.3491",786.64 ± 1.6 kg/m3
same,mass density,"[1]; 318.15 K, x2 = 0.4459",794.84 ± 1.6 kg/m3
same,mass density,"[1]; 318.15 K, x2 = 0.5467",803.43 ± 1.6 kg/m3
same,mass density,"[1]; 318.15 K, x2 = 0.6524",812.43 ± 1.6 kg/m3
same,mass density,"[1]; 318.15 K, x2 = 0.7627",821.89 ± 1.6 kg/m3
same,mass density,"[1]; 318.15 K, x2 = 0.8788",832.02 ± 1.7 kg/m3
CCO [ethanol],viscosity,[2],1.084 ± 0.013 mPa·s
same,mass density,[3],785.01 ± 1.6 kg/m3
same,viscosity,[4],0.752 ± 0.009 mPa·s
same,mass density,[5],767.54 ± 1.5 kg/m3
Cc1ccccc1 [toluene],viscosity,[2],0.533 ± 0.007 mPa·s
same,mass density,[3],862.01 ± 1.7 kg/m3
same,viscosity,[4],0.447 ± 0.006 mPa·s
same,mass density,[5],843.51 ± 1.7 kg/m3
Cc1ccccc1 [toluene] + CCO,viscosity,"[1]; 298.15 K, x2 = 0.1005",0.549 ± 0.007 mPa·s
same,viscosity,"[1]; 298.15 K, x2 = 0.2013",0.558 ± 0.007 mPa·s
same,viscosity,"[1]; 298.15 K, x2 = 0.3002",0.577 ± 0.007 mPa·s
same,viscosity,"[1]; 298.15 K, x2 = 0.4003",0.606 ± 0.008 mPa·s
same,viscosity,"[1]; 298.15 K, x2 = 0.5001",0.644 ± 0.008 mPa·s
same,viscosity,"[1]; 298.15 K, x2 = 0.6001",0.693 ± 0.009 mPa·s
same,viscosity,"[1]; 298.15 K, x2 = 0.7",0.754 ± 0.009 mPa·s
same,viscosity,"[1]; 298.15 K, x2 = 0.8",0.831 ± 0.01 mPa·s
same,viscosity,"[1]; 298.15 K, x2 = 0.9",0.926 ± 0.011 mPa·s
same,mass density,"[1]; 298.15 K, x2 = 0.1003",857.16 ± 1.7 kg/m3
same,mass density,"[1]; 298.15 K, x2 = 0.2002",852.38 ± 1.7 kg/m3
same,mass density,"[1]; 298.15 K, x2 = 0.3",847.27 ± 1.7 kg/m3
same,mass density,"[1]; 298.15 K, x2 = 0.4",841.65 ± 1.7 kg/m3
same,mass density,"[1]; 298.15 K, x2 = 0.5002",835.35 ± 1.7 kg/m3
same,mass density,"[1]; 298.15 K, x2 = 0.6001",828.22 ± 1.7 kg/m3
same,mass density,"[1]; 298.15 K, x2 = 0.7",819.95 ± 1.6 kg/m3
same,mass density,"[1]; 298.15 K, x2 = 0.8",810.35 ± 1.6 kg/m3
same,mass density,"[1]; 298.15 K, x2 = 0.9",798.87 ± 1.6 kg/m3
same,viscosity,"[1]; 318.15 K, x2 = 0.1004",0.439 ± 0.005 mPa·s
same,viscosity,"[1]; 318.15 K, x2 = 0.2004",0.442 ± 0.006 mPa·s
same,viscosity,"[1]; 318.15 K, x2 = 0.2997",0.449 ± 0.006 mPa·s
same,viscosity,"[1]; 318.15 K, x2 = 0.4007",0.464 ± 0.006 mPa·s
same,viscosity,"[1]; 318.15 K, x2 = 0.5007",0.483 ± 0.006 mPa·s
same,viscosity,"[1]; 318.15 K, x2 = 0.5998",0.508 ± 0.006 mPa·s
same,viscosity,"[1]; 318.15 K, x2 = 0.6998",0.542 ± 0.007 mPa·s
same,viscosity,"[1]; 318.15 K, x2 = 0.7999",0.585 ± 0.007 mPa·s
same,viscosity,"[1]; 318.15 K, x2 = 0.8998",0.641 ± 0.008 mPa·s
same,mass density,"[1]; 318.15 K, x2 = 0.1004",838.1 ± 1.7 kg/m3
same,mass density,"[1]; 318.15 K, x2 = 0.2002",833.2 ± 1.7 kg/m3
same,mass density,"[1]; 318.15 K, x2 = 0.3003",828.01 ± 1.7 kg/m3
same,mass density,"[1]; 318.15 K, x2 = 0.4003",822.39 ± 1.6 kg/m3
same,mass density,"[1]; 318.15 K, x2 = 0.5",816.2 ± 1.6 kg/m3
same,mass density,"[1]; 318.15 K, x2 = 0.6001",809.19 ± 1.6 kg/m3
same,mass density,"[1]; 318.15 K, x2 = 0.7001",801.21 ± 1.6 kg/m3
same,mass density,"[1]; 318.15 K, x2 = 0.7996",791.97 ± 1.6 kg/m3
same,mass density,"[1]; 318.15 K, x2 = 0.9",780.91 ± 1.6 kg/m3
